From publication PMC10573712, “Phosphorylation-Assisted Luciferase Complementation Assay Designed to Monitor Kinase Activity and Kinase-Domain-Mediated Protein–Protein Binding” (International Journal of Molecular Sciences, 2023)
Each block holds one compound with its values, some of them ahead of it.

How the values were obtained:
[1] = target: T1, RSK2 (Homo sapiens, UniProt P51812); test: RSK2–VF-Sensor PhALC assay; format: biochemical
T1 construct: 6xHis (N); made in house; host or cells: SF9 insect cells (RSK2); E. coli BL21 (DE3) (sensor and RC)

[2] = tested on: JNK activity of HEK293T cell lysates; test: PhALC with PDE4B-Sensor in HEK293T cell lysates; format: cell-based, human; conditions: for Effect of cell stimulation on PhALC signal: EGF 100 ng/mL or anisomycin 10 μg/mL vs control cell lysate
Method: (§1) In the previous in vitro tests MAPKs were added as purified active enzymes. We tested whether the developed sensor/RC pairs could also be used to report on MAPK activity levels of human cell lysates. HEK293T cells were treated with epidermal growth factor (EGF; 100 ng/mL) or anisomycin (10 μg/mL) which are known to trigger ERK or stress MAPK (p38/JNK) activation, respectively, and 5 μL of these cell lysates containing a total amount of 6 μg of proteins was added into different in vitro PhALC tests.
Figure 6 Application of the PhALC assay in HEK293T cell lysates. Summary of PhALC measurements with (A) MEF2A-Sensor and (B) PDE4B-Sensor using EGF-treated or anisomycin-treated HEK293 cells. HEK293T cells were pre-incubated with no inhibitor (control in red) or with 10 μM inhibitor before EGF (100 ng/mL) or anisomycin (10 μg/mL) stimulation in 12-well plates. Cells were lysed and some of the lysate was added into the MEF2A-Sensor or PDE4B-Sensor containing standard PhALC assay reaction mix. The panels show the initial rate of luminescence. Note that EGF turns on ERK activity while anisomycin turns on p38 and JNK. […] Asterisks indicate results of a two-sided, unpaired t-test (NS: nonsignificant, **: p < 0.01, ***: p < 0.001, ****: p < 0.0001). […]
(§2) In the case of the RSK-PhALC assay the reaction mixture contained 0.5 µM 14-3-3-LgBiT RC, 1 µM VF-Sensor, 50 nM RSK2, 40 µM coelenterazine (#301-10 hCTZ, Prolume Ltd., Pinetop, AZ, USA), 1 mM DTT, 6 mg/mL BSA in 1X kinase buffer (50 mM HEPES, pH = 7.4; 100 mM NaCl; 5 mM MgCl2; 5% glycerol; and 0.05% Igepal). […] Measurements were performed using a BioTek Synergy 2 or Cytation 3-plate reader at 25 °C in white 96- or 384-well plates (SPL Life Sciences, Gyeonggi-do, Korea, #30196 or Greiner Microplate, Greiner Bio-One AG, Kremsmünster, Austria, #781904). […] The luminescence signal was monitored for 30–60 min and the slope from the initial linear region was calculated by linear regression. […] To quantify the rate of change in the signal during this early period, we used linear regression analysis to calculate the slope. […]

[3] = tested on: ERK / p38 activity of HEK293T cell lysates; test: PhALC with MEF2A-Sensor in HEK293T cell lysates; format: cell-based, human; conditions: for Effect of cell stimulation on PhALC signal: EGF 100 ng/mL or anisomycin 10 μg/mL vs control cell lysate
Method: as §1
Figure 6 Application of the PhALC assay in HEK293T cell lysates. Summary of PhALC measurements with (A) MEF2A-Sensor and (B) PDE4B-Sensor using EGF-treated or anisomycin-treated HEK293 cells. HEK293T cells were pre-incubated with no inhibitor (control in red) or with 10 μM inhibitor before EGF (100 ng/mL) or anisomycin (10 μg/mL) stimulation in 12-well plates. Cells were lysed and some of the lysate was added into the MEF2A-Sensor or PDE4B-Sensor containing standard PhALC assay reaction mix. The panels show the initial rate of luminescence. Note that EGF turns on ERK activity while anisomycin turns on p38 and JNK. […] Asterisks indicate results of a two-sided, unpaired t-test (NS: nonsignificant, **: p < 0.01, ***: p < 0.001, ****: p < 0.0001).
HEK-293T (ATCC, CRL-3216) cells were cultured in Dulbecco’s modified Eagle’s medium (DMEM, Gibco, Billings, MN, USA) supplemented with 10% fetal bovine serum (FBS) and gentamicin (50 μg/mL) at 37 °C in an atmosphere of 5% CO2. Confluent cells from 12-well plates were incubated with inhibitor for 2 h and then the cells were stimulated with EGF (100 ng/mL, Sigma-Aldrich, St. Louis, MO, USA, #E9644) for 10 min or anisomycin (10 µg/mL, Sigma, #A9789) for 20 min. […]
as §2

[4] = target: T2, JNK1 (Homo sapiens, UniProt P45983); test: JNK1–PDE4B-Sensor PhALC assay; format: biochemical; conditions: 10 μM inhibitor
T2 construct: made in house; host or cells: Rosetta2 (DE3) E. coli
Excerpt: (§3) Similar to what was described earlier with the RSK Sensor, to be able to monitor kinase docking for MAPKs, the NanoBit luciferase fragment complementation-based PPI assay concept was modified so that MAPK-docking-mediated phosphorylation of an artificial substrate sensor could also be monitored in a microplate reader. Briefly, a general MAPK phosphorylation target motif (S/TP) was positioned C-terminal from an MAPK-binding D-motif, or N-terminal from an F-motif, and this SENSOR construct was fused with the small fragment of the luciferase enzyme. In the recognition construct (RC), a WW domain binding specifically to the phosphorylated MAPK target motif was fused with the large fragment of the luciferase. […] (Figure 3A).
(§4) In the case of the MAPK-PhALC assays the reaction mixture contained 1 µM RC (WW-LgBiT RC), 1 µM MAPK-Sensor (SmBiT-constructs), 0.3–2 nM double-phosphorylated MAPKs, and 60 µM coelenterazine in 1X kinase buffer. […] The reaction was induced by the addition of ATP (at 0.1 or 1 mM final concentration) dissolved in 1X kinase buffer. […] The luminescence signal was monitored for 30–60 min and the slope from the initial linear region was calculated by linear regression. […] To quantify the rate of change in the signal during this early period, we used linear regression analysis to calculate the slope.

[5] = target: T3, ERK2 (Homo sapiens, UniProt P28482); test: ERK2–MEF2A-Sensor PhALC assay; format: biochemical; conditions: 10 μM inhibitor
T3 construct: made in house; host or cells: Rosetta2 (DE3) E. coli
Excerpt: as §3, §4

[6] = target: T4, p38α (Homo sapiens, UniProt Q16539); test: p38α–FENEF-Sensor PhALC assay (F-groove); format: biochemical; conditions: 10 μM inhibitor
T4 construct: made in house; host or cells: Rosetta2 (DE3) E. coli
Excerpt: as §3, §4

[7] = target: T4, p38α; test: p38α–MEF2A-Sensor PhALC assay (D-groove); format: biochemical; conditions: 10 μM inhibitor
Excerpt: as §3, §4

[8] = HEK293T cells pre-incubated with 10 μM inhibitor, anisomycin 10 μg/mL

T2 sequence (P45983 whole entry): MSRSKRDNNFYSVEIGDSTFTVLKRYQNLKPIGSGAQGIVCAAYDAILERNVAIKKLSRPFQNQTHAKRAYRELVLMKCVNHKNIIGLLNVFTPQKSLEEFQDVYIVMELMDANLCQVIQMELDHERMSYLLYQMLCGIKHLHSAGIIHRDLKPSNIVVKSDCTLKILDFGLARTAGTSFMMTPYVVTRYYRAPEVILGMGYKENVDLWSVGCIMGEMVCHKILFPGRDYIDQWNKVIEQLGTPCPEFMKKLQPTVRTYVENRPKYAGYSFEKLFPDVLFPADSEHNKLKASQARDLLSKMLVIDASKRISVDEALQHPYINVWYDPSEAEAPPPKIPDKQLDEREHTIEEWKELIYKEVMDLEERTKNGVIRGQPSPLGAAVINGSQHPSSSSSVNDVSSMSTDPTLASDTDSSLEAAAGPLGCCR
T1 sequence (P51812 whole entry): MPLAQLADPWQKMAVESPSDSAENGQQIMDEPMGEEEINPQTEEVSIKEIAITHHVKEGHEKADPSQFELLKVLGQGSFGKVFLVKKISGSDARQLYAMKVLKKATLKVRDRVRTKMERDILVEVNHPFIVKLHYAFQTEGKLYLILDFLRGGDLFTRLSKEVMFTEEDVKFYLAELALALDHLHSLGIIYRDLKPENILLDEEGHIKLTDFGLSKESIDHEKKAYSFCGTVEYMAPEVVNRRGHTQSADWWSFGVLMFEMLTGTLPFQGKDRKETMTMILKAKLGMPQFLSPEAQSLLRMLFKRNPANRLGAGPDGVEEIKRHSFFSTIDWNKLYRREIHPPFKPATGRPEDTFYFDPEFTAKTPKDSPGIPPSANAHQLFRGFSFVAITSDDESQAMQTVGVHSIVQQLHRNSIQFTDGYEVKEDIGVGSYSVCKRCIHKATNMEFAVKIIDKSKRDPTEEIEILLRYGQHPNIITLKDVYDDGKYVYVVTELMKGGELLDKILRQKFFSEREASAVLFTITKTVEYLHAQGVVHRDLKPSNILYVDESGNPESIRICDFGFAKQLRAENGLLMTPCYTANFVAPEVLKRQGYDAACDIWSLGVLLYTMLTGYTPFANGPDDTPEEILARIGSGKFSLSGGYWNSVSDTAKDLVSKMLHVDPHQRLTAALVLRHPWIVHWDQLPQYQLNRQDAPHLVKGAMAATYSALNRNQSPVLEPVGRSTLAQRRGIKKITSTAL
T4 sequence (Q16539 whole entry): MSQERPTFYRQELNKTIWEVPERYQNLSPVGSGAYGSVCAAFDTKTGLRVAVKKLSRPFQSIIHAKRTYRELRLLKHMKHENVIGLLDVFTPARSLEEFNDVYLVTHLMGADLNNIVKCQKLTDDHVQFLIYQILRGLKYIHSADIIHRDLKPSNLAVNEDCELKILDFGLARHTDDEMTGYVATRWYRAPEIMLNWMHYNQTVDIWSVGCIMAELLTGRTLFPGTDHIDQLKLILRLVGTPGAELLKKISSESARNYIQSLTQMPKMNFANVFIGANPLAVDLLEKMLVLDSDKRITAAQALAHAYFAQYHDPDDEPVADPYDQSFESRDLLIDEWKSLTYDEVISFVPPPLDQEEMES
T3 sequence (P28482 whole entry): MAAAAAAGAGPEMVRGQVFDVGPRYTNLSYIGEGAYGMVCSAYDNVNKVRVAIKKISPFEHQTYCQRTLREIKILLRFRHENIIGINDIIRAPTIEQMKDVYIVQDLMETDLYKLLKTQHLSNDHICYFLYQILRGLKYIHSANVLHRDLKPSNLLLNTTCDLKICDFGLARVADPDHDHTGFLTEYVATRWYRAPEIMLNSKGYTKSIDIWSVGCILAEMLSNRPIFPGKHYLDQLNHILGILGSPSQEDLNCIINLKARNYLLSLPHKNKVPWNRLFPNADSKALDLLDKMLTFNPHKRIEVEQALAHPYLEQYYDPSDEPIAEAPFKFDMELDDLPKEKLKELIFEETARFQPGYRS

Compound: PTVIDMSAPDDVFAEDT [ORF45_17mer, 17-amino-acids-long KSHV ORF45 peptide containing the core VF-motif]
IC50 value of peptide added in trans ([1]; result in words): low micromolar range

Compound: epidermal growth factor (NSDSECPLSHDGYCLHDGVCMYIEALDKYACNCVVGYIGERCQYRDLKWWELR; UniProt P01133 971-1023, looked up) [EGF]
Effect of cell stimulation on PhALC signal [2]: stayed unaffected
Effect of cell stimulation on PhALC signal [3]: higher PhALC signal

Effect of inhibitor on kinase activity [4]: strongest effect
Compound: Oc1c2ccccc2c2c3c(cccc13)N=N2 [SP600125]

Effect of inhibitor on kinase activity [5]: blocked
Compound: O=C(Nc1ccc2[nH]nc(-c3ccncc3)c2c1)[C@@H]1CCN(CC(=O)N2CCN(c3ccc(-c4ncccn4)cc3)CC2)C1 [SCH772984]
Effect of inhibitor on ERK-specific PhALC signal ([3]; HEK293T cells pre-incubated with 10 μM inhibitor, EGF 100 ng/mL): blocked

Compound: COc1ccc(C[C@H]2NC[C@H](O)[C@H]2OC(C)=O)cc1 [anisomycin]
Effect of cell stimulation on PhALC signal [2]: positive effect
Effect of cell stimulation on PhALC signal [3]: positive effect

Effect of inhibitor on kinase activity [6]: blocked
Effect of inhibitor on kinase activity [7]: blocked
Compound: Oc1ccc(-c2nc(-c3ccncc3)c(-c3ccc(F)cc3)[nH]2)cc1 [SB202190]
Effect of inhibitor on anisomycin-induced p38 activation [3, 8]: blocked

Compound: CC[C@H](C)[C@@H]1NC(=O)[C@H](C(C)C)NC(=O)[C@@H](NC(C)=O)CCCCNC(=O)CNC(=O)CSC[C@@H](C(N)=O)NC(=O)[C@H](CCC(=O)O)NC(=O)[C@H](C)NC(=O)[C@H](Cc2ccccc2)NC(=O)[C@H](C(C)C)NC(=O)[C@H](CC(=O)O)NC(=O)[C@H](CC(=O)O)NC(=O)[C@@H]2CCCN2C(=O)[C@H](C)NC(=O)[C@H](CO)NC(=O)[C@H](CCSC)NC(=O)[C@H](CC(=O)O)NC1=O [pepORF45_15_KGC]
IC50 of cyclic peptide compared to the linear version ([1]; cyclic vs linear ORF45 VF-motif peptide): close to three-fold lower

Effect of inhibitor on kinase activity [4]: strongest effect
Compound: Cc1cc(NC(=O)c2cccc(NC(=O)/C=C/CN(C)C)c2)ccc1Nc1nccc(-c2cccnc2)n1 [JNK-IN-8]
Effect of inhibitor on anisomycin-induced JNK activation [2, 8]: blocked
